What was measured:
[1] = Stability of Abamectin in water at various pH-values and temperatures (dark, HPLC); format: physicochemical
Protocol: The stability of Abamectin in water at various pH-values and temperatures was determined. 194.4 mg of abamectin was dissolved in 10 ml methanol and 1 ml of the solution transferred to 100 ml of de-mineralised water and a part of this was transferred to a buffer solution. The sample was kept in the dark and the solution analysed using a HPLC.

[2] = Stability of Abamectin in water exposed to light at various pH-values (HPLC); format: physicochemical; settings: Light (5000-6000 lux)
Protocol: The stability of Abamectin in water exposed to light at various pH-values was determined. 194.4 mg of abamectin was dissolved in 10 ml methanol and 1 ml of the solution transferred to 100 ml of demineralised water and a part of this transferred to a buffer solution. The solution was exposed to light (5000-6000 lux) at 25° C. and analysed using a HPLC.

Substance: Abamectin
- Abemectin concentration (ppm) ([1]; pH 4.0, 25 ° C., 7 days): 3.130 ppm
- Abemectin concentration (ppm) ([1]; pH 4.0, 25 ° C., 14 days): 2.782 ppm
- Abemectin concentration (ppm) ([1]; pH 4.0, 25 ° C., 21 days): 2.566 ppm
- Abemectin concentration (ppm) ([1]; pH 4.0, 25 ° C., 28 days): 2.524 ppm
- Abemectin concentration (ppm) ([1]; pH 4.0, 25 ° C., Initial): 3.495 ppm
- Abemectin concentration (ppm) ([1]; pH 4.0, 50 ° C., 7 days): 1.054 ppm
- Abemectin concentration (ppm) ([1]; pH 4.0, 50 ° C., 14 days): 0.383 ppm
- Abemectin concentration (ppm) ([1]; pH 4.0, 50 ° C., 21 days): 0.123 ppm
- Abemectin concentration (ppm) ([1]; pH 4.0, 50 ° C., 28 days): 0.0609 ppm
- Abemectin concentration (ppm) ([1]; pH 4.0, 50 ° C., Initial): 3.495 ppm
- Abemectin concentration (ppm) ([1]; pH 7.0, 25 ° C., 7 days): 3.188 ppm
- Abemectin concentration (ppm) ([1]; pH 7.0, 25 ° C., 14 days): 3.040 ppm
- Abemectin concentration (ppm) ([1]; pH 7.0, 25 ° C., 21 days): 2.829 ppm
- Abemectin concentration (ppm) ([1]; pH 7.0, 25 ° C., 28 days): 2.676 ppm
- Abemectin concentration (ppm) ([1]; pH 7.0, 25 ° C., Initial): 3.327 ppm
- Abemectin concentration (ppm) ([1]; pH 7.0, 50 ° C., 7 days): 2.952 ppm
- Abemectin concentration (ppm) ([1]; pH 7.0, 50 ° C., 14 days): 2.780 ppm
- Abemectin concentration (ppm) ([1]; pH 7.0, 50 ° C., 21 days): 2.194 ppm
- Abemectin concentration (ppm) ([1]; pH 7.0, 50 ° C., 28 days): 1.949 ppm
- Abemectin concentration (ppm) ([1]; pH 7.0, 50 ° C., Initial): 3.327 ppm
- Abemectin concentration (ppm) ([1]; pH 9.0, 25 ° C., 7 days): 3.005 ppm
- Abemectin concentration (ppm) ([1]; pH 9.0, 25 ° C., 14 days): 2.596 ppm
- Abemectin concentration (ppm) ([1]; pH 9.0, 25 ° C., 21 days): 2.380 ppm
- Abemectin concentration (ppm) ([1]; pH 9.0, 25 ° C., 28 days): 2.287 ppm
- Abemectin concentration (ppm) ([1]; pH 9.0, 25 ° C., Initial): 3.555 ppm
- Abemectin concentration (ppm) ([1]; pH 9.0, 50 ° C., 7 days): 1.265 ppm
- Abemectin concentration (ppm) ([1]; pH 9.0, 50 ° C., 14 days): 0.519 ppm
- Abemectin concentration (ppm) ([1]; pH 9.0, 50 ° C., 21 days): 0.205 ppm
- Abemectin concentration (ppm) ([1]; pH 9.0, 50 ° C., 28 days): 0.0628 ppm
- Abemectin concentration (ppm) ([1]; pH 9.0, 50 ° C., Initial): 3.555 ppm
- Abemectin concentration (ppm) ([2]; pH 4.0, 25° C., 7 days): 2.923 ppm
- Abemectin concentration (ppm) ([2]; pH 4.0, 25° C., 14 days): 2.332 ppm
- Abemectin concentration (ppm) ([2]; pH 4.0, 25° C., 21 days): 1.961 ppm
- Abemectin concentration (ppm) ([2]; pH 4.0, 25° C., 28 days): 1.666 ppm
- Abemectin concentration (ppm) ([2]; pH 4.0, 25° C., Initial): 3.495 ppm
- Abemectin concentration (ppm) ([2]; pH 7.0, 25° C., 7 days): 2.941 ppm
- Abemectin concentration (ppm) ([2]; pH 7.0, 25° C., 14 days): 2.529 ppm
- Abemectin concentration (ppm) ([2]; pH 7.0, 25° C., 21 days): 2.223 ppm
- Abemectin concentration (ppm) ([2]; pH 7.0, 25° C., 28 days): 2.034 ppm
- Abemectin concentration (ppm) ([2]; pH 7.0, 25° C., Initial): 3.327 ppm
- Abemectin concentration (ppm) ([2]; pH 9.0, 25° C., 7 days): 3.163 ppm
- Abemectin concentration (ppm) ([2]; pH 9.0, 25° C., 14 days): 2.810 ppm
- Abemectin concentration (ppm) ([2]; pH 9.0, 25° C., 21 days): 2.360 ppm
- Abemectin concentration (ppm) ([2]; pH 9.0, 25° C., 28 days): 2.173 ppm
- Abemectin concentration (ppm) ([2]; pH 9.0, 25° C., Initial): 3.555 ppm
